Experimental data taken from US8497289B2, “3.1.0 bicyclic GlyT1 inhibitors and methods of making and using same” (Vanderbilt University, priority 2008, dated 2013).
pIC50: −log10 of the molar value.

Biological target: T1, GlyT1 (Homo sapiens, UniProt P48067)
T1 construct: Human placental choriocarcinoma cells endogenously expressing GlyT1; host or cells: JAR cells (human placental choriocarcinoma)
T1 sequence (P48067 1-706): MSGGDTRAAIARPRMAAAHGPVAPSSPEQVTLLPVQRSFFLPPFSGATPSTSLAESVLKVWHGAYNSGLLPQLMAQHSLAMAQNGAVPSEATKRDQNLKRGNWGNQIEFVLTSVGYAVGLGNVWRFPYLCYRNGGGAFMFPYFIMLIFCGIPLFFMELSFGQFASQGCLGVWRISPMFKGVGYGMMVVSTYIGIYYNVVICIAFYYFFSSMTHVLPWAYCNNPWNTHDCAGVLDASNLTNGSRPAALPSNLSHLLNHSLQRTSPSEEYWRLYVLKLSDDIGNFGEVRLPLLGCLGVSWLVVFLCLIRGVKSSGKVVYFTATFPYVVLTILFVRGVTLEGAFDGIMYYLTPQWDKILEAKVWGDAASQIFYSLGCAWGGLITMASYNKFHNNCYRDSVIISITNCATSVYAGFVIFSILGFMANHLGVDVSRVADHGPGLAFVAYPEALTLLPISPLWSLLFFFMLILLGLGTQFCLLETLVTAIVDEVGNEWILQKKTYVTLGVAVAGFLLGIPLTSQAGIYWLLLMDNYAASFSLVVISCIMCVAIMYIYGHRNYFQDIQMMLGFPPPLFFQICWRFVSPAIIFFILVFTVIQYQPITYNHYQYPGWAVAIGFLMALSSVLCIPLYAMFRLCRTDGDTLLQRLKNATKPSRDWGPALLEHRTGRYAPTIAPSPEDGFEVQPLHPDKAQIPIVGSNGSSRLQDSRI
Assay: [14C]-glycine uptake in JAR cells (scintillation proximity, Cytostar T plates)
Assay type: cell-based
Details: read-out: Potency
Description: Human placental choriocarcinoma cells endogenously expressing GlyT1 can be cultured using standard conditions. Cells can then be grown at 37° C. in a humidified atmosphere 40-48 hours before the assay. Culture medium can be removed from the culture plate, and cells can be incubated with an amount of TB1A buffer with or without the compounds of the present invention for a sufficient period of time. Then an amount of [^14C]-glycine diluted with TB1A can be added to each well. After incubation the microplates can be sealed and counted. Non-specific uptake of [^14C]-glycine can be determined in the presence of unlabeled glycine. To determine potencies, a range of concentrations of the compounds of the present invention can be added to the cells, followed by the fixed concentration of [^14C]-glycine. The concentration of the present compound that inhibited half of the specific uptake of [^14C]glycine (IC50 value) can be determined from the assay data by non-linear curve fitting.
The procedure used was analogous to that disclosed in Williams, J. B.; Mallorga P. J.; Lemaire W.; Williams D. L.; Na S.; Patel S.; Conn J. P.; Pettibone D. J.; Austin C.; Sur C.; “Development of a scintillation proximity assay for analysis of Na+/Cl−-dependent neurotransmitter transporter activity,” ANAL. BIOCHEM.
Cells were plated at a density of 1.3×10^4 cells/well and grown at 37° C. in a humidified atmosphere of 5% CO2 for 40-48 h. Culture medium was removed from the Cytostar T plate and JAR cells were incubated with 30 μl of TB1A buffer (120 mM NaCl, 2 mM KCl, 1 mM CaCl2, 1 mM MgCl2, 10 mM Hepes, 5 mM L-alanine, pH 7.5 adjusted with 1 M Tris base) with or without multiple concentrations of test compound (added at 2× final concentration) for 1 min. Then 30 μl of [^14C]-glycine (Perkin-Elmer) diluted in TB1A was added to each well to give a final concentration of 10 μM. Cytostar T plates were then incubated in the dark at room temperature for 3 h, sealed with opaque white bottom plate seals (Perkin-Elmer) and clear top plate seals (Topseal A, Perkin-Elmer), and were counted on a Top Count (Packard). Glycine uptake was determined by measuring radioactivity in each well and plotted as a function of concentration of test compound. […] Nonspecific uptake of [^14C]-glycine was determined in the presence of 10 mM cold glycine. [^14C]-taurine (American Radiolabeled Chemicals, Inc.) uptake experiments were performed according to the same protocol except that 10 mM cold taurine was used to determine nonspecific uptake. […] COS-7 cells were transiently transfected with the human GlyT2 cDNA (Origene Technologies Inc., SC303452) using Fugene 6 (Roche) according to the manufacturer's instructions in Dulbecco's modified Eagle's medium (DMEM, Invitrogen) containing 10% Fetal Bovine Serum, 10 mM HEPES, 1 mM sodium pyruvate, penicillin (100 μg/ml), and streptomycin (100 μg/ml). The following day, the cells were plated at a density of 5×10^5 cells/well in Cytostar T plates and maintained at 37° C. in a humidified atmosphere of 5% CO2 for 24 h. GlyT2 glycine uptake experiments were performed according to the same protocol previously described.

Q: How did the pIC50 turn out when `Cn1cnc(S(=O)(=O)N2CC3C(C2)C3(CNC(=O)c2ccc(Cl)cc2Cl)CC2CC2)c1` (stereo not drawn) [Compound 6a, 2,4-dichloro-N-((6-(cyclopropylmethyl)-3-(1-methyl-1H-imidazol-4-ylsulfonyl)-3-azabicyclo[3.1.0]hexan-6-yl)methyl)benzamide] was run?
A: 8.39

Q: How did the pIC50 turn out when `Cn1cnc(S(=O)(=O)N2CC3C(C2)C3(CNC(=O)c2ccccc2Cl)CC2CC2)c1` (stereo not drawn) [Compound 6b] was run?
A: 7.73

Q: With `Cn1cnc(S(=O)(=O)N2CC3C(C2)C3(CNC(=O)c2ccc(Cl)cc2)CC2CC2)c1` (stereo not drawn) [Compound 6c] as the compound, how does the pIC50 read?
A: 7.49

Q: With `Cn1cnc(S(=O)(=O)N2CC3C(C2)C3(CNC(=O)c2ccc(Cl)c(Cl)c2)CC2CC2)c1` (stereo not drawn) [Compound 6d] as the compound, how does the pIC50 read?
A: 7.09

Q: `Cn1cnc(S(=O)(=O)N2CC3C(C2)C3(CNC(=O)c2c(F)cccc2F)CC2CC2)c1` (stereo not drawn) [Compound 6e] was tested. Which pIC50 did it give?
A: 8.40

Q: With `Cn1cnc(S(=O)(=O)N2CC3C(C2)C3(CNC(=O)c2ccccc2C(F)(F)F)CC2CC2)c1` (stereo not drawn) [Compound 6f] as the compound, how does the pIC50 read?
A: 8.30

Q: `Cn1cnc(S(=O)(=O)N2CC3C(C2)C3(CNC(=O)c2cccc(C(F)(F)F)c2)CC2CC2)c1` (stereo not drawn) [Compound 6g] was tested. Which pIC50 did it give?
A: 7.19

Q: With `Cn1cnc(S(=O)(=O)N2CC3C(C2)C3(CNC(=O)c2ccc(F)cc2F)CC2CC2)c1` (stereo not drawn) [Compound 6h] as the compound, how does the pIC50 read?
A: 7.36

Q: How did the pIC50 turn out when `Cn1cnc(S(=O)(=O)N2CC3C(C2)C3(CNC(=O)c2cc(Cl)cc(Cl)c2)CC2CC2)c1` (stereo not drawn) [Compound 6i] was run?
A: 7.00

Q: With `Cn1cnc(S(=O)(=O)N2CC3C(C2)C3(CNC(=O)c2cccc(Cl)c2)CC2CC2)c1` (stereo not drawn) [Compound 6j] as the compound, how does the pIC50 read?
A: 6.92

Q: With `CCS(=O)(=O)N1CC2C(C1)C2(CNC(=O)c1ccc(Cl)cc1Cl)CC1CC1` (stereo not drawn) [Compound 8a] as the compound, how does the pIC50 read?
A: 5.89

Q: With `CCCS(=O)(=O)N1CC2C(C1)C2(CNC(=O)c1ccc(Cl)cc1Cl)CC1CC1` (stereo not drawn) [Compound 8b] as the compound, how does the pIC50 read?
A: 6.44

Q: How did the pIC50 turn out when `CC(C)S(=O)(=O)N1CC2C(C1)C2(CNC(=O)c1ccc(Cl)cc1Cl)CC1CC1` (stereo not drawn) [Compound 8c] was run?
A: 5.47

Q: How did the pIC50 turn out when `O=C(NCC1(CC2CC2)C2CN(S(=O)(=O)CC3CC3)CC21)c1ccc(Cl)cc1Cl` (stereo not drawn) [Compound 8d, 2,4-Dichloro-N-((6-(cyclopropylmethyl)-3-(cyclopropylmethylsulfonyl)-3-azabicyclo[3.1.0]hexan-6-yl)methyl)benzamide] was run?
A: 6.64

Q: How did the pIC50 turn out when `CCCS(=O)(=O)N1CC2C(C1)C2(CNC(=O)c1ccccc1F)CC1CC1` (stereo not drawn) [Compound 9a] was run?
A: 5.68

Q: With `CCCS(=O)(=O)N1CC2C(C1)C2(CNC(=O)c1ccccc1Cl)CC1CC1` (stereo not drawn) [Compound 9b] as the compound, how does the pIC50 read?
A: 5.92

Q: `CCCS(=O)(=O)N1CC2C(C1)C2(CNC(=O)c1ccc(Cl)cc1)CC1CC1` (stereo not drawn) [Compound 9c] was tested. Which pIC50 did it give?
A: 5.73

Q: With `CCCS(=O)(=O)N1CC2C(C1)C2(CNC(=O)c1cccc(C(F)(F)F)c1)CC1CC1` (stereo not drawn) [Compound 9d] as the compound, how does the pIC50 read?
A: 5.35

Q: How did the pIC50 turn out when `CCCS(=O)(=O)N1CC2C(C1)C2(CNC(=O)c1ccc(C(F)(F)F)cc1)CC1CC1` (stereo not drawn) [Compound 9e] was run?
A: 5.96

Q: How did the pIC50 turn out when `CCCS(=O)(=O)N1CC2C(C1)C2(CNC(=O)c1ccc(F)cc1Cl)CC1CC1` (stereo not drawn) [Compound 9f] was run?
A: 6.29

Q: How did the pIC50 turn out when `O=C(NCC1(CC2CC2)C2CN(S(=O)(=O)CC3CC3)CC21)c1ccccc1C(F)(F)F` (stereo not drawn) [Compound 9g] was run?
A: 6.16

Q: With `O=C(NCC1(CC2CC2)C2CN(S(=O)(=O)CC3CC3)CC21)c1ccc(C(F)(F)F)cc1` (stereo not drawn) [Compound 9h] as the compound, how does the pIC50 read?
A: 6.20

Q: `O=C(NCC1(CC2CC2)C2CN(S(=O)(=O)CC3CC3)CC21)c1ccc(F)cc1F` (stereo not drawn) [Compound 9i] was tested. Which pIC50 did it give?
A: 5.99

Q: `O=C(NCC1(CC2CC2)C2CN(S(=O)(=O)CC3CC3)CC21)c1c(F)cccc1F` (stereo not drawn) [Compound 9j] was tested. Which pIC50 did it give?
A: 5.99

Q: `CS(=O)(=O)N1CC2C(C1)C2(CNC(=O)c1ccc(Cl)cc1Cl)c1ccccn1` (stereo not drawn) [Compound 12a] was tested. Which pIC50 did it give?
A: < 4.70

Q: How did the pIC50 turn out when `CCS(=O)(=O)N1CC2C(C1)C2(CNC(=O)c1ccc(Cl)cc1Cl)c1ccccn1` (stereo not drawn) [Compound 12b] was run?
A: < 4.70

Q: With `CCCS(=O)(=O)N1CC2C(C1)C2(CNC(=O)c1ccc(Cl)cc1Cl)c1ccccn1` (stereo not drawn) [Compound 12c] as the compound, how does the pIC50 read?
A: < 4.70

Q: How did the pIC50 turn out when `Cn1cnc(S(=O)(=O)N2CC3C(C2)C3(CNC(=O)c2ccc(Cl)cc2Cl)c2ccccn2)c1` (stereo not drawn) [Compound 12d, 2,4-dichloro-N-((3-(1-methyl-1H-imidazol-4-ylsulfonyl)-6-(pyridine-2-yl)-3-azabicyclo[3.1.0]hexan-6-yl)methyl)benzamide] was run?
A: 6.62

Q: How did the pIC50 turn out when `Cn1cc(S(=O)(=O)N2CC3C(C2)C3(CNC(=O)c2ccc(Cl)cc2Cl)c2ccccn2)cn1` (stereo not drawn) [Compound 12e] was run?
A: < 4.70

Q: How did the pIC50 turn out when `O=C(NCC1(c2ccccn2)C2CN(S(=O)(=O)c3ccccc3)CC21)c1ccc(Cl)cc1Cl` (stereo not drawn) [Compound 12f] was run?
A: < 4.70

Q: `O=C(NCC1(c2ccccn2)C2CN(S(=O)(=O)c3ccccn3)CC21)c1ccc(Cl)cc1Cl` (stereo not drawn) [Compound 12g] was tested. Which pIC50 did it give?
A: < 4.70

Q: `Cn1cnc(S(=O)(=O)N2CC3C(C2)C3(CNC(=O)c2ccccc2Cl)c2ccccn2)c1` (stereo not drawn) [Compound 13a] was tested. Which pIC50 did it give?
A: 6.34

Q: How did the pIC50 turn out when `Cn1cnc(S(=O)(=O)N2CC3C(C2)C3(CNC(=O)c2ccccc2C(F)(F)F)c2ccccn2)c1` (stereo not drawn) [Compound 13b, 2-Trifluoromethyl-N-((6-(pyridin-2-yl)-3-(1-methyl-1H-imidazol-4-ylsulfonyl)-3-azabicyclo[3.1.0]hexan-6-yl)methyl)benzamide] was run?
A: 6.72
